pIC50: −log10 of the molar value.
Legend:
[1] = target: T1, Polyunsaturated fatty acid lipoxygenase ALOX15B (Homo sapiens, UniProt O15296); assay: (§1) Inhibition of human recombinant N-terminal His-tagged 15-LOX2 expressed in Escherichia coli using arachidonic acid as substrate preincubated for 5 mins followed by substrate addition measured after 20 mins in dark by ferric ion oxidation-xylenol orange assay; details: for pIC50: read-out: IC50
T1 sequence (O15296 whole entry): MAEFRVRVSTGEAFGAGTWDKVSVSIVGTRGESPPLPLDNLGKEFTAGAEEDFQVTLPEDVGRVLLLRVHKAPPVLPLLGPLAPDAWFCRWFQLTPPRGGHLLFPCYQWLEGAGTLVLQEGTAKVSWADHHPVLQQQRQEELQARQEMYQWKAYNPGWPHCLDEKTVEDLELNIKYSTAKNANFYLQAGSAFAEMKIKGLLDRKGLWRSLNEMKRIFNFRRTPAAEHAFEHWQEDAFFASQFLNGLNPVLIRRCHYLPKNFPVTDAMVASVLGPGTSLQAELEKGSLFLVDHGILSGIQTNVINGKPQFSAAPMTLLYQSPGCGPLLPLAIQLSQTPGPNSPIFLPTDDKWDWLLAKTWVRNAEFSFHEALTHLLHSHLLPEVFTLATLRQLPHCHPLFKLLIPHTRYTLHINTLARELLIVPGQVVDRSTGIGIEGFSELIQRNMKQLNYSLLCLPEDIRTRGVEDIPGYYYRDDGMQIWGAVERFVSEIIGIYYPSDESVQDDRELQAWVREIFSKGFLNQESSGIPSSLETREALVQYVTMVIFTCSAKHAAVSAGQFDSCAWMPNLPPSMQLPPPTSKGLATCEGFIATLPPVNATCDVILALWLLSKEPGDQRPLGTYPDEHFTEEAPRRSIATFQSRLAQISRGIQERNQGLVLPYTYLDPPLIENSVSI

[2] = target: T2, Polyunsaturated fatty acid lipoxygenase ALOX15B (Homo sapiens) (UniProt O15296); assay: as §1, with “coli assessed as residual activity at 42 uM” for “coli”, “assay relative to control” for “assay”
T2 sequence (whole entry): T1 sequence (O15296 whole entry)

[3] = target: T3, Polyunsaturated fatty acid 5-lipoxygenase (Homo sapiens, UniProt P09917); assay: Inhibition of human recombinant 5-LOX expressed in insect cells assessed as decrease in production of 5-HPETE and 5-HETE using arachidonic acid as substrate preincubated for 5 mins followed by substrate addition measured after 20 mins in dark by ferric ion oxidation-xylenol orange method; details: for pIC50: read-out: IC50
T3 sequence (P09917 whole entry): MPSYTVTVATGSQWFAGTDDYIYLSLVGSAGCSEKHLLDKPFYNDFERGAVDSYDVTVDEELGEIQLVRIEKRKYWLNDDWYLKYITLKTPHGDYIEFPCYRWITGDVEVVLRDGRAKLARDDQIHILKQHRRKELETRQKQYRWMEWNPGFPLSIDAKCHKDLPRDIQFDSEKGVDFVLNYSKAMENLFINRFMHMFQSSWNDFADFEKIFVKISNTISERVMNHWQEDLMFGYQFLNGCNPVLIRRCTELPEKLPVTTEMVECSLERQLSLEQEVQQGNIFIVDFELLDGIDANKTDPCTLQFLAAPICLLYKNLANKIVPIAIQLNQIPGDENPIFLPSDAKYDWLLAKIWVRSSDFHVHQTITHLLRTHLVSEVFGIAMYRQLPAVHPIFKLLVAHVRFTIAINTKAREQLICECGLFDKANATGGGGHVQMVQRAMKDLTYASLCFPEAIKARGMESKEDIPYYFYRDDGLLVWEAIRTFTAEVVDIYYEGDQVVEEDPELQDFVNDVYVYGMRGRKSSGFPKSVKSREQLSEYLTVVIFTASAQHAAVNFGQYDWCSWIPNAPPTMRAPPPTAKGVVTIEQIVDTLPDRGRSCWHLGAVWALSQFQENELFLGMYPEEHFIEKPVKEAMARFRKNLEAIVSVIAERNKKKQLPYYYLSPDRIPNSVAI

[4] = target: T4, Polyunsaturated fatty acid 5-lipoxygenase (Homo sapiens) (UniProt P09917); assay: Inhibition of human recombinant 5-LOX expressed in insect cells assessed residual activity using arachidonic acid at 42 uM as substrate preincubated for 5 mins followed by substrate addition measured after 20 mins in dark by ferric ion oxidation-xylenol orange method relative to control
T4 sequence (whole entry): T3 sequence (P09917 whole entry)

[5] = target: T5, Prostaglandin G/H synthase 2 (Homo sapiens, UniProt P35354); assay: biochemical; format: cell-based, Sf21; details: for pIC50: read-out: IC50; for IC50: sf21;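 on all read-outs here: recombinant enzyme produced in baculovirus-infected Sf21 cells, arachidonic acid substrate, PGE2 output quantified by LC-MS after 45 min, compounds preincubated 10 min beforehand, lower PGE2 means inhibition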
T5 sequence (P35354 whole entry): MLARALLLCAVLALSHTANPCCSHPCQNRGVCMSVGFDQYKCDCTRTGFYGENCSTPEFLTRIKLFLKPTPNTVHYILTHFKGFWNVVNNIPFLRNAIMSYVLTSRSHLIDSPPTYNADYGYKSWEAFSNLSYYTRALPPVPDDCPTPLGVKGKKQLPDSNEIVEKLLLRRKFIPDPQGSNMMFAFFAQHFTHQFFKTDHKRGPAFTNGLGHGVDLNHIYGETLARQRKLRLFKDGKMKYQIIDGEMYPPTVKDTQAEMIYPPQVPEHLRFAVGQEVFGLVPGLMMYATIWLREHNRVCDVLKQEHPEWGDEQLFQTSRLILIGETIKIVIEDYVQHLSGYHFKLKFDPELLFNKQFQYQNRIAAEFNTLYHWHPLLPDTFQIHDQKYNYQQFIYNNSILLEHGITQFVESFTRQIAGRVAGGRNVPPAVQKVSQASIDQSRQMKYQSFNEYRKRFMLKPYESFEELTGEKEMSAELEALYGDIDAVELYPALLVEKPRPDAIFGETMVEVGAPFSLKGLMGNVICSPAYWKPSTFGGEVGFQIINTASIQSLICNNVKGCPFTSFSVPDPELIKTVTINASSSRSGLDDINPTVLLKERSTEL
Description: Inhibition of human recombinant COX2 expressed in baculovirus infected sf21 cells assessed as decrease in PGE2 formation using arachidonic acid as substrate preincubated for 10 mins followed by substrate addition measured after 45 mins by LC-MS analysis

[6] = target: T6, Prostaglandin G/H synthase 1 (Ovis aries, UniProt P05979);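 further: recombinant ovine COX1 enzyme, PGE2 formed from arachidonic acid quantified by LC-MS, 10 min inhibitor preincubation then 45 min reaction, inhibition seen as reduced PGE2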
T6 sequence (P05979 whole entry): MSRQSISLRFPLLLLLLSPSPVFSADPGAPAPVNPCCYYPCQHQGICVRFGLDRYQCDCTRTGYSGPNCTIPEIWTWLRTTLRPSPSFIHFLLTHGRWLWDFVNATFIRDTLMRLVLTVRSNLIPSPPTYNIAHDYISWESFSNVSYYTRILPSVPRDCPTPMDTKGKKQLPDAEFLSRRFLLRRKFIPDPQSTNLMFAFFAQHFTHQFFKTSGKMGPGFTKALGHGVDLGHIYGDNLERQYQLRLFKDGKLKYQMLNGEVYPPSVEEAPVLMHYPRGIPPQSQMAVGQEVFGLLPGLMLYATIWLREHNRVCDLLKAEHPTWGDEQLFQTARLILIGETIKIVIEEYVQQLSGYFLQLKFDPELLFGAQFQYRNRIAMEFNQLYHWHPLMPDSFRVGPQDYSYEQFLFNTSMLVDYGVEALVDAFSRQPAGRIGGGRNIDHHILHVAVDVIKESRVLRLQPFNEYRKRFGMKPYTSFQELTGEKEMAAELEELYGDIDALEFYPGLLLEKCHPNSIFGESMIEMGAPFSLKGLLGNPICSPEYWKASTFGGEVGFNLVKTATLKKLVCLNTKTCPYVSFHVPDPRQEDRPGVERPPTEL
Description: Inhibition of ovine recombinant COX1 assessed as decrease in formation of PGE2 using arachidonic acid as substrate preincubated for 10 mins followed by substrate addition measured after 45 mins by LC-MS analysis

C[C@H]1[C@H](C)CC[C@]2(C(=O)O)CC[C@]3(C)C(=CC[C@@H]4[C@@]5(C)C[C@@H](O)[C@H](O)[C@@](C)(CO)[C@@H]5CC[C@]43C)[C@H]12 [ASIATIC ACID]
IC50 [1]: Not Active
Activity [2]: 100%
pIC50 [3]: < 4.40
Activity [4]: 61.9%
pIC50 [5]: < 4.40

CC1(C)CC[C@]2(C(=O)O)CC[C@]3(C)C(=CC[C@@H]4[C@@]5(C)CC[C@H](O)[C@@](C)(C(=O)O)[C@@H]5CC[C@]43C)[C@@H]2C1
IC50 [1]: Not Active
IC50 [6]: Not Active
Activity [2]: 100%
pIC50 [3]: < 4.40
Activity [4]: 86%
IC50 [5]: Not Active

CC(=O)O[C@@H]1CC[C@@]2(C)[C@@H](CC[C@]3(C)[C@@H]2CC=C2[C@@H]4[C@@H](C)[C@H](C)CC[C@]4(C)CC[C@]23C)[C@@]1(C)C(=O)O
pIC50 [1]: 4.91
Activity [2]: 24.9%
pIC50 [3]: < 4.40
Activity [4]: 69.5%
pIC50 [5]: < 4.40

CC(Cc1ccc(O)c(O)c1)C(C)Cc1ccc(O)c(O)c1 (centres undefined)
Activity [2]: 31.4%

CC1(C)[C@@H](O)CC[C@]2(C)[C@H]3C(=O)C=C4[C@@H]5C[C@@](C)(C(=O)O)CC[C@]5(C)CC[C@@]4(C)[C@]3(C)CC[C@@H]12 [ENOXOLONE]
pIC50 [1]: < 4.40
IC50 [6]: Not Active
Activity [2]: 98.6%
pIC50 [3]: 4.61
Activity [4]: 28.3%
pIC50 [5]: < 4.40

CC1(C)CC[C@]2(C)CC[C@]3(C)C(=CC[C@@H]4[C@@]5(C)CC[C@@H](O)[C@](C)(C(=O)O)[C@@H]5CC[C@]43C)[C@@H]2C1
IC50 [1]: Not Active
Activity [2]: 100%
Activity [4]: 48.7%
pIC50 [5]: < 4.40

CC1(C)CC[C@]2(C)CC[C@]3(C)C(=CC[C@@H]4[C@@]5(C)CCC(=O)C(C)(C)[C@@H]5CC[C@]43C)[C@@H]2C1
IC50 [1]: Not Active
Activity [2]: 100%
IC50 [3]: Not Active
Activity [4]: 100%
IC50 [5]: Not Active

C[C@H]1[C@H](C)CC[C@]2(C(=O)O)CC[C@]3(C)C(=CC[C@@H]4[C@@]5(C)CC[C@H](O)C(C)(C)[C@@H]5CC[C@]43C)[C@H]12 [URSOLIC ACID]
pIC50 [1]: < 4.40
Activity [2]: 63.6%
pIC50 [3]: < 4.40
Activity [4]: 64%
pIC50 [5]: < 4.40

C[C@H]1[C@H](C)CC[C@]2(C)CC[C@]3(C)C(=CC[C@@H]4[C@@]5(C)CC[C@@H](O)[C@](C)(C(=O)O)[C@@H]5CC[C@]43C)[C@H]12 [BOSWELLIC ACID]
IC50 [1]: Not Active
Activity [2]: 100%
pIC50 [3]: < 4.40
Activity [4]: 53.4%
pIC50 [5]: < 4.40

CC(=O)O[C@@H]1CC[C@@]2(C)[C@@H](CC[C@]3(C)[C@@H]2C(=O)C=C2[C@@H]4[C@@H](C)[C@H](C)CC[C@]4(C)CC[C@]23C)[C@@]1(C)C(=O)O [AKBA]
pIC50 [1]: < 4.40
Activity [2]: 81.7%
pIC50 [3]: 4.45
Activity [4]: 41.2%
pIC50 [5]: < 4.40

C[C@H]1[C@H](C)CC[C@]2(C)CC[C@]3(C)C(=CC(=O)[C@@H]4[C@@]5(C)CC[C@@H](O)[C@](C)(C(=O)O)[C@@H]5CC[C@]43C)[C@H]12 [11-KETO BOSWELLIC ACID]
IC50 [1]: Not Active
Activity [2]: 100%
pIC50 [3]: 4.55
Activity [4]: 31.9%
pIC50 [5]: < 4.40

CC1(C)CC[C@]2(C(=O)O)CC[C@]3(C)C(=CC[C@@H]4[C@@]5(C)C[C@@H](O)[C@H](O)[C@@](C)(CO)[C@@H]5CC[C@]43C)[C@@H]2C1 [ARJUNOLIC ACID]
IC50 [1]: Not Active
Activity [2]: 100%
Activity [4]: 47.7%
pIC50 [5]: < 4.40

CC1(C)CC[C@]2(C(=O)O)CC[C@]3(C)C(=CC[C@@H]4[C@@]5(C)CC[C@H](O)C(C)(C)[C@@H]5CC[C@]43C)[C@@H]2C1 [OLEANOLIC_ACID]
IC50 [1]: Not Active
Activity [2]: 100%
IC50 [3]: Not Active
Activity [4]: 100%

CC1(C)[C@@H](O)CC[C@]2(C)[C@H]3CC=C4[C@@H]5C[C@@](C)(C(=O)O)CC[C@]5(C)CC[C@@]4(C)[C@]3(C)CC[C@@H]12
IC50 [1]: Not Active
Activity [2]: 100%
Activity [4]: 49%
pIC50 [5]: < 4.40

CC1(C)CC[C@]2(C(=O)O)CC[C@]3(C)C(=CC[C@@H]4[C@@]5(C)C[C@@H](O)[C@H](O)C(C)(C)[C@@H]5CC[C@]43C)[C@@H]2C1 [MASLINIC ACID]
IC50 [1]: Not Active
Activity [2]: 100%
pIC50 [3]: < 4.40
Activity [4]: 62.9%
pIC50 [5]: < 4.40

C[C@H]1[C@H](C)CC[C@]2(C(=O)O)CC[C@]3(C)C(=CC[C@@H]4[C@@]5(C)C[C@@H](O)[C@H](O)C(C)(C)[C@@H]5CC[C@]43C)[C@H]12 [COROSOLIC ACID]
IC50 [1]: Not Active
Activity [2]: 100%
pIC50 [3]: < 4.40
Activity [4]: 66.7%
pIC50 [5]: < 4.40

C[C@H]1[C@H](C)CC[C@]2(CO)CC[C@]3(C)C(=CC[C@@H]4[C@@]5(C)CC[C@H](O)C(C)(C)[C@@H]5CC[C@]43C)[C@H]12 [UVAOL]
pIC50 [1]: < 4.40
IC50 [6]: Not Active
Activity [2]: 70.2%
Activity [4]: 45%
IC50 [5]: Not Active

CC(=O)O[C@@H]1CC[C@@]2(C)[C@@H](CC[C@]3(C)[C@@H]2CC=C2[C@@H]4CC(C)(C)CC[C@]4(C)CC[C@]23C)[C@@]1(C)C(=O)O
IC50 [1]: Not Active
Activity [2]: 100%
pIC50 [3]: < 4.40
Activity [4]: 93.1%
pIC50 [5]: < 4.40
